Columns and labels:
hCB2 [1] = molecular target: T1, hCB2 (Homo sapiens, UniProt P34972); experiment: functional cAMP assay, hCB2; type: cell-based; conditions: for hCB2 cAMP % eff (efficacy) / EC50: CHO-K1 cells expressing hCB2; for EC50: read-out: hCB2 cAMP EC50; for functional behaviour in cAMP assay: hCB2
T1 construct: host or cells: CHO-K1 beta-arrestin cells
Method: (§1) CHO-K1 beta-arrestin cells (DiscoveRx, Fremont, CA) expressing hCB2, mouse CB2 (mCB2), and human CB1 (hCB1) were cultured in F-12 Nutrient Mixture (HAM) supplemented with 10% fetal bovine serum (FBS), 300 μg/mL hygromycin and 800 μg/mL geneticin (G418). Cells were incubated in a humidified atmosphere at 37°C with 5% CO2.
(§2) cAMP was measured using cAMP-Nano-TRF detection kit (Roche Diagnostics, Penzberg, Germany). Cells were seeded 17–24 h prior to the experiment 3 × 10^4 cells per well in a black 96-well plate with flat clear bottom (Corning, Wiesbaden, Germany) in growth medium and incubated in 5% CO2 at 37°C in a humidified incubator. The growth medium was exchanged with Krebs Ringer bicarbonate buffer with 1 mmol/L 3-isobutyl-1-methylxanthine (IBMX), 0.1% fatty acid-free bovine serum albumin (BSA) and incubated at 30°C for 60 min. Agonist was added to a final assay volume of 100 μL and the mixture was incubated for 30 min at 30°C. The assay was stopped by the addition of 50 μL 3x lysis reagent and shaken for 2 h at room temperature. The time-resolved energy transfer was measured using an LF502 Nanoscan FLT (IOM, Berlin, Germany), equipped with a laser as excitation source. cAMP content was determined from the function of a standard curve spanning from 10 to 0.13 nmol/L cAMP.

mCB2 [2] = molecular target: T2, mCB2 (Mus musculus, UniProt P47936); experiment: functional cAMP assay, mCB2; type: cell-based; conditions: CHO-K1 cells expressing mCB2; for EC50: read-out: mCB2 cAMP EC50
T2 construct: host or cells: CHO-K1 beta-arrestin cells
Method: as §1, §2

hCB1 [3] = molecular target: T3, hCB1 (Homo sapiens, UniProt P21554); experiment: functional cAMP assay, hCB1 versus hCB2; type: cell-based; conditions: cAMP assays
T3 construct: host or cells: CHO-K1 beta-arrestin cells
Method: as §1, §2

mCB2 [4] = molecular target: T2, mCB2; experiment: radioligand binding assay with [^3H]CP55940, mCB2; conditions: competition with [^3H]CP55940; read-out: mCB2 Ki
Method: as §1
(§3) Stably transfected cells were treated for 24 h with 5 mM butyrate in growth medium before harvesting, followed by homogenization in 15 mmol/L Hepes, 0.3 mmol/L EDTA, 1 mmol/L EGTA, 2 mmol/L MgCl2, complete EDTA-free protease inhibitor (Roche Applied Science, Rotkreuz, Switzerland), pH 7.4 using a glass potter and centrifugation at 47,800 g at 4°C for 30 min. The pellet was then rehomogenized twice in the same buffer and centrifuged (47,800 g, 4°C, 30 min). The final pellet was then resuspended in 75 mmol/L Tris, 0.3 mmol/L EDTA, 1 mmol/L EGTA, 12.5 mmol/L MgCl2, 250 mmol/L sucrose, pH 7.4 at a protein concentration of 1 to 3 mg/mL, aliquoted, frozen on dry ice and stored at −80°C. Saturation binding was performed with 0.05 to 2.6 nM [^3H]CP55940 (Perkin Elmer) and 1.0 μg of membrane protein. CP55940 (10 μM) was used to define non-specific binding. More than 95% of the total binding signal was specific. Assay buffer consisted of 50 mmol/L Tris-HCl, 5 mmol/L MgCl2, 2.5 mmol/L EGTA, and 0.1% fatty acid-free BSA, pH 7.4. Assays were initiated by addition of membranes in a final volume of 250 μL/well. Mixtures were incubated for 3 h at room temperature and then vacuum filtered and rinsed with wash buffer (50 mmol/L Tris-HCl, 5 mmol/L MgCl2, 2.5 mmol/L EGTA, and 0.5% fatty acid-free BSA, pH 7.4) on a Filtermate cell harvester through Packard GF/B filters presoaked in 0.3% polyethylenimine.
(§4) For competition binding, membrane preparations were incubated with 0.3 nM [^3H]CP55940 in the presence or absence of increasing concentrations of ligands for 60 min at 30°C in a final volume of 0.2 mL of 50 mmol/L Tris-HCl, 5 mmol/L MgCl2, 2.5 mmol/L EGTA, 0.1% fatty acid-free BSA, and 1% DMSO, pH 7.4, buffer, gently shaking. Non-specific binding was defined with 10 μM CP55940. All binding reactions were terminated by vacuum filtration onto 0.5% polyethylenimine presoaked GF/B filter plates (Packard) followed by seven brief washes with 2 mL of ice-cold binding buffer containing 0.5% fatty acid-free BSA. Plates were dried at 50°C for 1 h and liquid scintillation counting was used to determine bound radiolabel. IC50 values and Hill slopes were determined by a four parameter logistic model using ActivityBase (ID Business Solution, Guilford, UK). pKi values were determined by the generalized Cheng-Prusoff equation (Yung-Chi and Prusoff, [1973]).

hCB1 [5] = molecular target: T3, hCB1; experiment: radioligand binding assay with [^3H]CP55940, hCB1; conditions: for Ki: competition with [^3H]CP55940, read-out: hCB1 Ki; for Ki ratio hCB1/hCB2: selectivity
Method: as §1, §3, §4

hCB2 [6] = molecular target: T1, hCB2; experiment: radioligand binding assay with [^3H]CP55940, hCB2; conditions: for Ki: competition with [^3H]CP55940, read-out: hCB2 Ki
Method: as §1, §3, §4

T1 sequence (P34972 whole entry): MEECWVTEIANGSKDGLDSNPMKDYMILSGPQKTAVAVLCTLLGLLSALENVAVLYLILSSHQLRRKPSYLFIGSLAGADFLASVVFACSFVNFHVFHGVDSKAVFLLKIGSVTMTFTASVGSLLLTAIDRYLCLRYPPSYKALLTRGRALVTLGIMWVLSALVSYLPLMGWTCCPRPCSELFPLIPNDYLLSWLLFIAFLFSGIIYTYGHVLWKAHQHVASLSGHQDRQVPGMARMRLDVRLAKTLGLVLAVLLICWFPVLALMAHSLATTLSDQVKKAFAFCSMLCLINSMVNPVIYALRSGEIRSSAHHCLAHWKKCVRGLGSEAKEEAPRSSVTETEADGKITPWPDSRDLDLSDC
T3 sequence (P21554 whole entry): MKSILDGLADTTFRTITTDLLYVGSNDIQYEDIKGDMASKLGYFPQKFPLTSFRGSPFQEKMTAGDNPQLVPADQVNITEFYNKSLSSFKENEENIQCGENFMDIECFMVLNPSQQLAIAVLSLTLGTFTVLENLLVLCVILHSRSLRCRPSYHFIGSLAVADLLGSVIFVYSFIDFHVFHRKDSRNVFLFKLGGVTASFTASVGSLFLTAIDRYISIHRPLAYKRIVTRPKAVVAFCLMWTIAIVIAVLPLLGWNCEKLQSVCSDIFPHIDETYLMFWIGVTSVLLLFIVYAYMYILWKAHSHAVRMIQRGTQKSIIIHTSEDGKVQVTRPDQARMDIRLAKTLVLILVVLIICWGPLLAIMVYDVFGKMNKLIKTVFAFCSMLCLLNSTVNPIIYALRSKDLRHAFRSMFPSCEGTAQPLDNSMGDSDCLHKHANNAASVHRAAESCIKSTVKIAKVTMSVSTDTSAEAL
T2 sequence (P47936 whole entry): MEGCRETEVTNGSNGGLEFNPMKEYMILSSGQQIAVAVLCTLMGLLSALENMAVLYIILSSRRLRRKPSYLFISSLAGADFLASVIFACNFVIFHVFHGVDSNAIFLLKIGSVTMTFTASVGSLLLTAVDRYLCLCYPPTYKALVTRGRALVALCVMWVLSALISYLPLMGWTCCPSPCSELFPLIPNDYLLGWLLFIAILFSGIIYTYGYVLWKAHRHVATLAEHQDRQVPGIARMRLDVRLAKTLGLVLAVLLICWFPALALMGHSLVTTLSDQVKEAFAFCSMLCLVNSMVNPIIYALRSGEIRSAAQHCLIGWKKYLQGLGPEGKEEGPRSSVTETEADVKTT

Row | Structure (SMILES) | hCB2 cAMP % eff (efficacy) (hCB2 [1]) | EC50 (hCB2 [1]) | functional behaviour in cAMP assay (hCB2 [1]) | mCB2 cAMP % eff (efficacy) (mCB2 [2]) | EC50 (mCB2 [2]) | EC50 ratio hCB1/hCB2 (hCB1 [3]) | Ki (mCB2 [4]) | Ki (hCB1 [5]) | Ki ratio hCB1/hCB2 (hCB1 [5]) | Ki (hCB2 [6]) | species difference in binding affinity (hCB2 [6]; hCB2 versus mCB2)
1 | Fc1ccc(-c2noc(CCCNc3cnc4ccc(OC(F)(F)F)cc4c3)n2)c(Cl)c1 [Compound 12, reference compound] | 100% | 0.15 nM | agonists | 100% | 0.18 nM | 1300 | 4.6 nM | 568 nM | 202 | 2.8 nM | –
2 | CCCCOc1c(OC)ccc2cc(C(=O)NC3CCCCC3)c(=O)[nH]c12 [NE40, reference compound] | −178% | 8 nM | inverse agonist | −128% | 11 nM | > 1250 | 2 nM | 1040 nM | 241 | 4 nM | no species difference

From article PMC5031696, “Synthesis, Biodistribution and In vitro Evaluation of Brain Permeable High Affinity Type 2 Cannabinoid Receptor Agonists [^11C]MA2 and [^18F]MA3” (Frontiers in Neuroscience, 2016)
